Calls of active or inactive are those of the source. The calls are words filed in the database; no cut-off is given here.
Assays:
SJSA-1 = test: Antiproliferative activity against human SJSA-1 cells assessed as inhibition of cell proliferation incubated for 48 hrs by CCK-8 assay; format: functional, cell-based; settings: SJSA-1, 48 h
A549 = test: Antiproliferative activity against human A549 cells assessed as inhibition of cell proliferation incubated for 48 hrs by CCK-8 assay; format: functional, cell-based; settings: A549, 48 h
[1] = molecular target: T1, Aurora kinase A (Homo sapiens) (UniProt O14965); test: Covalent binding affinity to recombinant human Aurora A (1 to 403 residues) expressed in Escherichia coli assessed as dissociation rate constant by surface plasmon resonance analysis
T1 sequence (whole entry): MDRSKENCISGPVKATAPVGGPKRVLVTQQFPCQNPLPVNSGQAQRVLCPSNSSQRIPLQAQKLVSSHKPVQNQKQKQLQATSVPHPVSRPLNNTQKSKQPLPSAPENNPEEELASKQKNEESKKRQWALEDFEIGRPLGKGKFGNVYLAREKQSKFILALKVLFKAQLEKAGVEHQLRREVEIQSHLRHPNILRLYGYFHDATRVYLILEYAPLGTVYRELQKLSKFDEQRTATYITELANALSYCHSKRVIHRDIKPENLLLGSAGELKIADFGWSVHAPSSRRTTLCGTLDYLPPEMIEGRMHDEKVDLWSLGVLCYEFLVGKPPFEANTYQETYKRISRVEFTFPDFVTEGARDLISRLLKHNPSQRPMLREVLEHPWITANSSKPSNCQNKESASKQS

[2] = molecular target: T1, Aurora kinase A (Homo sapiens); test: Covalent binding affinity to recombinant human Aurora A (1 to 403 residues) expressed in Escherichia coli assessed as covalent adduct formation at Cys290 residue at 100 uM incubated for 4 hrs by UPLC-MS/MS analysis
[3] = molecular target: T1, Aurora kinase A (Homo sapiens); test: Inhibition of Aurora A in human MDA-MB-231 cells assessed as decrease in Aurora A phosphorylation at Thr288 residue at 0.2 to 0.6 uM incubated for 1 hrs by Western blot analysis; format: cell-based; settings: dose 0.2-0.6 µM
[4] = molecular target: Aurora kinase B (Homo sapiens) (UniProt Q96GD4); test: Inhibition of Aurora B in human MDA-MB-231 cells assessed as effect on Aurora B phosphorylation at 0.2 to 0.6 uM incubated for 1 hrs by Western blot analysis; format: cell-based; settings: dose 0.2-0.6 µM
[5] = molecular target: T1, Aurora kinase A (Homo sapiens); test: Binding affinity to Aurora A in human MDA-MB-231 cells assessed as thermal stability at 46 to 62 degreeC at 1 uM incubated for 1 hrs by […] analysis; format: cell-based
Aurora kinase A [6] = molecular target: T2, Aurora kinase A (Homo sapiens, UniProt O14965); test: Inhibition of recombinant human Aurora A (1 to 403 residues) expressed in Escherichia coli using STK-substrate 2-biotin as substrate incubated for 15 mins in presence of 0.48 uM ATP by HTRF assay
T2 sequence (O14965 whole entry): T1 sequence (whole entry)

Aurora kinase A [7] = molecular target: T2, Aurora kinase A; test: Inhibition of recombinant human Aurora A (1 to 403 residues) expressed in Escherichia coli using STK-substrate 2-biotin as substrate incubated for 15 mins in presence of 2.4uM ATP by HTRF assay
Aurora kinase A [8] = molecular target: T2, Aurora kinase A; test: Inhibition of recombinant human Aurora A (1 to 403 residues) expressed in Escherichia coli using STK-substrate 2-biotin as substrate incubated for 40 mins in presence of 7.2uM ATP by HTRF assay
Aurora kinase A [9] = molecular target: T2, Aurora kinase A; test: Inhibition of recombinant human Aurora A (1 to 403 residues) expressed in Escherichia coli using STK-substrate 2-biotin as substrate incubated for 40 mins in presence of 24 uM ATP by HTRF assay
Aurora kinase A [10] = molecular target: T2, Aurora kinase A; test: Inhibition of recombinant human Aurora A (1 to 403 residues) expressed in Escherichia coli using STK-substrate 2-biotin as substrate incubated for 60 mins in presence of 0.48 uM ATP by HTRF assay
MDA-MB-231 [11] = test: Induction of cell cycle arrest in human MDA-MB-231 cells assessed as accumulation at G2/M phase at 1.25 to 5 uM incubated for 24 hrs by PI staining based flow cytometry; format: functional; settings: dose 1.25-5 µM
MDA-MB-231 [12] = test: Induction of cell cycle arrest in human MDA-MB-231 cells assessed as accumulation at G2/M phase at 5 uM incubated for 24 hrs by PI staining based flow cytometry (Rvb=14.0%); format: functional
MDA-MB-231 [13] = test: Induction of apoptosis in human MDA-MB-231 cells assessed as necrotic cells at 1.25 uM incubated for 24 hrs by Annexin V-FITC staining based flow cytometry (Rvb= 1.67%); format: functional
MDA-MB-231 [14] = test: Induction of apoptosis in human MDA-MB-231 cells assessed as late apoptotic cells at 1.25 uM incubated for 24 hrs by Annexin V-FITC staining based flow cytometry (Rvb= 6.90%); format: functional
MDA-MB-231 [15] = test: Induction of apoptosis in human MDA-MB-231 cells assessed as late apoptotic cells at 2.5 uM incubated for 24 hrs by Annexin V-FITC staining based flow cytometry (Rvb= 6.90%); format: functional
MDA-MB-231 [16] = test: Induction of apoptosis in human MDA-MB-231 cells assessed as early apoptotic cells at 2.5 uM incubated for 24 hrs by Annexin V-FITC staining based flow cytometry (Rvb= 3.3%); format: functional
MDA-MB-231 [17] = test: Induction of apoptosis in human MDA-MB-231 cells assessed as early apoptotic cells at 5 uM incubated for 24 hrs by Annexin V-FITC staining based flow cytometry (Rvb= 3.3%); format: functional
MDA-MB-231 [18] = test: Induction of apoptosis in human MDA-MB-231 cells assessed as live cells at 1.25 uM incubated for 24 hrs by Annexin V-FITC staining based flow cytometry (Rvb= 88.1%); format: functional
MDA-MB-231 [19] = test: Inhibition of cell migration in human MDA-MB-231 cells at 1.25 uM incubated for 18 hrs by Scratch assay (Rvb= 37.2%); format: functional
[20] = Metabolic stability in Sprague-Dawley rat liver microsomes assessed as elimination rate constant at 1.75 uM incubated upto 60 mins in presence of NADPH by LC-MS analysis; format: ADME, Microsome
[21] = Metabolic stability in Sprague-Dawley rat liver microsomes assessed as intrinsic clearance at 1.75 uM incubated upto 60 mins in presence of NADPH by LC-MS analysis; format: ADME, Microsome; settings: read-out: CLH
[22] = Toxicity in BALB/c nude mouse xenografted with human MDA-MB-231 cells assessed as body weight change at 15 mg/kg,ip every 2days for 20 days; format: organism-based; settings: in vivo, 480 h, time 20 day
Mus musculus = test: In vivo inhibition of Aurora signalling pathway in human MDA-MB-231 cells xenografted in BALB/c nude mouse assessed as decrease in Aurora B phosphorylation at Thr232 residue in tumor at 15 mg/kg,ip every 2days for 20 days by Western blot analysis; format: functional, organism-based; settings: time 20.0 day
[23] = Toxicity in BALB/c nude mouse xenografted with human MDA-MB-231 cells assessed as parenchymal injury in heart at 15 mg/kg,ip every 2days for 20 days by Hematoxylin and Eosin staining based microscopy; format: organism-based; settings: in vivo, 480 h, time 20 day
[24] = Toxicity in BALB/c nude mouse xenografted with human MDA-MB-231 cells assessed as parenchymal injury in liver at 15 mg/kg,ip every 2days for 20 days by Hematoxylin and Eosin staining based microscopy; format: organism-based; settings: in vivo, 480 h, time 20 day
[25] = Toxicity in BALB/c nude mouse xenografted with human MDA-MB-231 cells assessed as inflammatory cell infiltration in heart at 15 mg/kg,ip every 2days for 20 days by Hematoxylin and Eosin staining based microscopy; format: organism-based; settings: in vivo, 480 h, time 20 day

Sequence of Aurora kinase B (Homo sapiens) (Q96GD4 whole entry): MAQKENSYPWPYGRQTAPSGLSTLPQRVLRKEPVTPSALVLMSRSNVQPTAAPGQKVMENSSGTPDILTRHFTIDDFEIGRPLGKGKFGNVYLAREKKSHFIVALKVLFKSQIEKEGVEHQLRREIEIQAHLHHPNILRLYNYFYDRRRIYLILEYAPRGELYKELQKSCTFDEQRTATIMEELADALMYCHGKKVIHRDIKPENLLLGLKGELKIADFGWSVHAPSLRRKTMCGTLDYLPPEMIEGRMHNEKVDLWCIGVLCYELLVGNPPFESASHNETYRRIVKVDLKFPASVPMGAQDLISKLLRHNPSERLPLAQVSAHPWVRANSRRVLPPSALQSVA

- IC50 (SJSA-1): 4270 nM
- IC50 (A549): 3080 nM
- Activity [1]: Active
- Activity [2]: Active
- inhibition [3]: Dose-Dependent Effect
- inhibition [4]: inactive
- Activity [5]: Active
- IC50 (Aurora kinase A [6]): 1.49 nM
- IC50 (Aurora kinase A [7]): 4.01 nM
- IC50 (Aurora kinase A [8]): 5.19 nM
- IC50 (Aurora kinase A [9]): 8.34 nM
- IC50 (Aurora kinase A [10]): 3.41 nM
- k el at 1 h, 1.75 µM [20]: 0.000467 s⁻¹
- microsomal CLint at 1.75 µM [21]: 71.3 µL/min/mg
Compound: C=CC(=O)Nc1ccc(-c2nc(Nc3cc(C)[nH]n3)c3ccc(N4CCN(C)CC4)cc3n2)cc1
- Activity (MDA-MB-231 [11]): Dose-Dependent Effect
- Activity (MDA-MB-231 [12]): 50.8%
- Activity (MDA-MB-231 [13]): 1.83%
- Activity (MDA-MB-231 [14]): 18.1%
- Activity (MDA-MB-231 [15]): 21%
- Activity (MDA-MB-231 [16]): 17.7%
- Activity (MDA-MB-231 [17]): 28.6%
- Activity (MDA-MB-231 [18]): 69.5%
- inhibition at 1.25 µM (MDA-MB-231 [19]): 3.6%
- Activity [22]: Non-Toxic
- inhibition (Mus musculus): inactive
- Activity [23]: Non-Toxic
- Activity [24]: Non-Toxic
- Activity [25]: Non-Toxic

Reference: ChEMBL document CHEMBL5370554, “Discovery of a first-in-class Aurora A covalent inhibitor for the treatment of triple negative breast cancer” (Eur J Med Chem, 2023)
